Peptide text beside a SMILES is read from it. * marks the point of attachment. X2 = CC[C@@H](C)[C@H](CN[C@@H](Cc1ccccc1)C(=O)O)N*
Molecular target: T1, Neurotensin receptor type 1 (Rattus norvegicus, UniProt P20789)
Assay: IC50 was measured as binding to rat cortex membranes using [3H]- NT (neurotensin) as tracer

T1 sequence (P20789 whole entry): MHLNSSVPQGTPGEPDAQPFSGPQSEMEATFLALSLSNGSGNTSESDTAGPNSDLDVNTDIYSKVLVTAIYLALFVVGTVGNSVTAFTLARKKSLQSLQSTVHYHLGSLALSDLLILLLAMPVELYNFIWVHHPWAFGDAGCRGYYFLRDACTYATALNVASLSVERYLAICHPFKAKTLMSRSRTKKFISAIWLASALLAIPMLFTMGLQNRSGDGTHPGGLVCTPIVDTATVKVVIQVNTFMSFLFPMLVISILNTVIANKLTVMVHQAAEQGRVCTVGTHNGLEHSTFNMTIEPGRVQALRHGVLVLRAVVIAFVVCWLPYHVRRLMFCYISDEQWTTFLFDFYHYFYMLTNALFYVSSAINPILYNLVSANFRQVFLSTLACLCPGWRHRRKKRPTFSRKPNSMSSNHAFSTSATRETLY

Row | IC50 | Compound
1 | 10000 nM | CC[C@H](C)[C@H](NC(C#N)[C@H](Cc1ccc(O)cc1)NC(=O)C1CCCN1C(=O)[C@H](CCCN=C(N)N)NC(=O)[C@@H](N)CCCN=C(N)N)C(=O)N[C@@H](CC(C)C)C(=O)O (some centres undefined)
2 | 180 nM | CC[C@H](C)[C@H](NC(C#N)[C@@H](Cc1ccc(O)cc1)NC(=O)[C@@H]1CCCN1C(=O)[C@H](CCCN=C(N)N)NC(=O)[C@@H](N)CCCN=C(N)N)C(=O)N[C@@H](CC(C)C)C(=O)O (some centres undefined)

Molecular target: T1, Neurotensin receptor type 1
Assay: IC50 was measured as binding to rat cortex membranes using [3H]- NT(neurotensin) as tracer

Row | Compound | IC50
3 | CC[C@H](C)[C@H](NC[C@H](Cc1ccc(O)cc1)NC(=O)[C@@H]1CCCN1C(=O)[C@H](CCCN=C(N)N)NC(=O)[C@@H](N)CCCN=C(N)N)C(=O)N[C@@H](CC(C)C)C(=O)O | 6310 nM
4 | CC(C)C[C@H](NC(=O)C(CC(=O)[C@H](Cc1ccc(O)cc1)NC(=O)[C@@H]1CCCN1C(=O)[C@H](CCCNC(=N)N)NC(=O)[C@@H](N)CCCNC(=N)N)Cc1ccccc1)C(=O)O (single isomer, unassigned) | 15 nM
5 | CC[C@H](C)[C@H](NC(=O)[C@H](Cc1ccc(O)cc1)NC(=O)[C@@H]1CCCN1C(=O)[C@H](CCCN=C(N)N)NC(=O)[C@@H](N)CCCN=C(N)N)C(=O)C[C@H](Cc1ccccc1)C(=O)O (stereo in doubt; 13a) [listing 1 of 2 here] | 120 nM
6 | CC(C)C[C@H](NC(=O)[C@H](Cc1ccccc1)NC(=O)[C@H](Cc1ccc(O)cc1)NC(=O)[C@@H]1CCCN1C(=O)[C@H](CCCN=C(N)N)NC(=O)[C@@H](N)CCCN=C(N)N)C(=O)O | 8 nM
7 | CC[C@H](C)[C@H](NC(=O)[C@H](Cc1ccc(O)cc1)NC(=O)[C@@H]1CCCN1C(=O)[C@H](CCCNC(=N)N)NC(=O)[C@@H](N)CCCNC(=N)N)C(=O)N[C@@H](Cc1ccccc1)C(=O)O | 5 nM
8 | CC(C)C[C@H](NC(=O)[C@H](CC(=O)[C@H](Cc1ccc(O)cc1)NC(=O)[C@@H]1CCCN1C(=O)[C@H](CCCNC(=N)N)NC(=O)[C@@H](N)CCCNC(=N)N)Cc1ccccc1)C(=O)O | 1200 nM
9 | CC[C@H](C)[C@H](NC(=O)[C@H](Cc1ccc(O)cc1)NC(=O)[C@@H]1CCCN1C(=O)[C@H](CCCN=C(N)N)NC(=O)[C@@H](N)CCCN=C(N)N)C(=O)C[C@H](Cc1ccccc1)C(=O)O (mixture of isomers) [listing 1 of 2 here] | 900 nM

The next lines start with the values.

Row | IC50 | Compound
10 | 8000 nM | CC[C@@H](C)[C@H](CN[C@@H](Cc1ccccc1)C(=O)O)NC(=O)[C@H](Cc1ccc(O)cc1)NC(=O)[C@@H]1CCCN1C(=O)[C@H](CCCNC(=N)N)NC(=O)[C@@H](N)CCCNC(=N)N (H-RRPY-X2)
11 | 1200 nM | CC[C@H](C)[C@H](NC(=O)[C@H](Cc1ccc(O)cc1)NC(=O)[C@@H]1CCCN1C(=O)[C@H](CCCN=C(N)N)NC(=O)[C@@H](N)CCCN=C(N)N)C(=O)C[C@H](Cc1ccccc1)C(=O)O (stereo in doubt; 13b) [listing 1 of 2 here]
12 | 1500 nM | CC[C@H](C)[C@H](NC(=O)[C@H](Cc1ccc(O)cc1)NC(=O)[C@@H]1CCCN1C(=O)[C@H](CCCN=C(N)N)NC(=O)[C@@H](N)CCCN=C(N)N)C(=O)C[C@H](Cc1ccccc1)C(=O)O (stereo in doubt; 13c) [listing 1 of 2 here]

Molecular target: Neurotensin receptor type 1 (Rattus norvegicus) (UniProt P20789)
Sequence (P20789 whole entry): as above
Assay: Relative potency at neurotensin receptor compared to neurotensin (NT8-13)

Row | Compound | Relative potency
13 | CC[C@@H](C)[C@@H](NC(=O)[C@H](Cc1ccc(O)cc1)NC(=O)[C@@H]1CCCN1C(=O)[C@H](CCCN=C(N)N)NC(=O)[C@@H](N)CCCN=C(N)N)C(=O)N[C@@H](Cc1ccccc1)C(=O)O | 200
14 | CC(C)C[C@H](NC(=O)C(CC(=O)[C@H](Cc1ccc(O)cc1)NC(=O)[C@@H]1CCCN1C(=O)[C@H](CCCNC(=N)N)NC(=O)[C@@H](N)CCCNC(=N)N)Cc1ccccc1)C(=O)O (single isomer, unassigned) | 66.6
15 | CC[C@H](C)[C@H](NC(=O)[C@H](Cc1ccc(O)cc1)NC(=O)[C@@H]1CCCN1C(=O)[C@H](CCCN=C(N)N)NC(=O)[C@@H](N)CCCN=C(N)N)C(=O)C[C@H](Cc1ccccc1)C(=O)O (stereo in doubt; 13b) [listing 2 of 2 here] | 0.8
16 | CC[C@H](C)[C@H](NC(C#N)[C@H](Cc1ccc(O)cc1)NC(=O)C1CCCN1C(=O)[C@H](CCCN=C(N)N)NC(=O)[C@@H](N)CCCN=C(N)N)C(=O)N[C@@H](CC(C)C)C(=O)O (some centres undefined) | 0.1
17 | CC[C@@H](C)[C@@H](NC[C@H](Cc1ccc(O)cc1)NC(=O)[C@@H]1CCCN1C(=O)[C@H](CCCN=C(N)N)NC(=O)[C@@H](N)CCCN=C(N)N)C(=O)N[C@@H](CC(C)C)C(=O)O | 0.1
18 | CC(C)C[C@H](NC(=O)[C@H](CC(=O)[C@H](Cc1ccc(O)cc1)NC(=O)[C@@H]1CCCN1C(=O)[C@H](CCCNC(=N)N)NC(=O)[C@@H](N)CCCNC(=N)N)Cc1ccccc1)C(=O)O | 0.8
19 | CC[C@H](C)[C@H](NC(=O)[C@H](Cc1ccc(O)cc1)NC(=O)[C@@H]1CCCN1C(=O)[C@H](CCCN=C(N)N)NC(=O)[C@@H](N)CCCN=C(N)N)C(=O)C[C@H](Cc1ccccc1)C(=O)O (stereo in doubt; 13c) [listing 2 of 2 here] | 0.6
20 | CC(C)C[C@H](NC(=O)[C@@H](Cc1ccccc1)NC(=O)[C@H](Cc1ccc(O)cc1)NC(=O)[C@@H]1CCCN1C(=O)[C@H](CCCN=C(N)N)NC(=O)[C@@H](N)CCCN=C(N)N)C(=O)O | 105

Now from value to compound:

Row | Relative potency | Compound
21 | 0.1 | CC[C@@H](C)[C@H](CN[C@@H](Cc1ccccc1)C(=O)O)NC(=O)[C@H](Cc1ccc(O)cc1)NC(=O)[C@@H]1CCCN1C(=O)[C@H](CCCN=C(N)N)NC(=O)[C@@H](N)CCCN=C(N)N (H-RRPY-X2)
22 | 8.3 | CC[C@H](C)[C@H](NC(=O)[C@H](Cc1ccc(O)cc1)NC(=O)[C@@H]1CCCN1C(=O)[C@H](CCCN=C(N)N)NC(=O)[C@@H](N)CCCN=C(N)N)C(=O)C[C@H](Cc1ccccc1)C(=O)O (stereo in doubt; 13a) [listing 2 of 2 here]
23 | 5.5 | CC[C@H](C)[C@H](NC(C#N)[C@@H](Cc1ccc(O)cc1)NC(=O)[C@@H]1CCCN1C(=O)[C@H](CCCN=C(N)N)NC(=O)[C@@H](N)CCCN=C(N)N)C(=O)N[C@@H](CC(C)C)C(=O)O (some centres undefined)
24 | 1.1 | CC[C@H](C)[C@H](NC(=O)[C@H](Cc1ccc(O)cc1)NC(=O)[C@@H]1CCCN1C(=O)[C@H](CCCN=C(N)N)NC(=O)[C@@H](N)CCCN=C(N)N)C(=O)C[C@H](Cc1ccccc1)C(=O)O (mixture of isomers) [listing 2 of 2 here]
